Data taken from the NIST ThermoML archive (doi:10.1021/acs.jced.8b00451).
± gives the expanded uncertainty stated by the source.

Conditions: Liquid, Ebulliometric method (Recirculating still)

| SMILES | vapor or sublimation pressure (434 K) [kPa] | vapor or sublimation pressure (434.1 K) [kPa] | vapor or sublimation pressure (444.3 K) [kPa] | vapor or sublimation pressure (459.3 K) [kPa] | vapor or sublimation pressure (469.3 K) [kPa] | vapor or sublimation pressure (479.4 K) [kPa] | vapor or sublimation pressure (394.7 K) [kPa] |
| --- | --- | --- | --- | --- | --- | --- | --- |
| CC1CCC(=O)O1 (configuration not stated) [γ-valerolactone] | 29.9 ± 0.2 | 30 ± 0.2 | 40.6 ± 0.2 | 61.7 ± 0.2 | 80 ± 0.2 | 102.6 ± 0.3 |  |
| O=Cc1ccco1 [2-furaldehyde] |  |  |  |  |  |  | 30 ± 0.2 |
